Patent US7943358B2, “Polymerase enhancing factor (PEF) extracts, PEF protein complexes, isolated PEF protein, and methods for purifying and identifying” (Agilent Technologies, Inc., priority 1997, dated 2011)
Where “and” joins values, the source holds several entries; their conditions need not be identical. Equal values may be shown once.

What was measured:
Pfu DNA polymerase [1] = target: T1, Pfu DNA polymerase (Pyrococcus furiosus, UniProt P61875); assay: 0.9 kb α1-antitrypsin PCR in absence or presence of dUTP; format: biochemical
T1 sequence (P61875 1-775): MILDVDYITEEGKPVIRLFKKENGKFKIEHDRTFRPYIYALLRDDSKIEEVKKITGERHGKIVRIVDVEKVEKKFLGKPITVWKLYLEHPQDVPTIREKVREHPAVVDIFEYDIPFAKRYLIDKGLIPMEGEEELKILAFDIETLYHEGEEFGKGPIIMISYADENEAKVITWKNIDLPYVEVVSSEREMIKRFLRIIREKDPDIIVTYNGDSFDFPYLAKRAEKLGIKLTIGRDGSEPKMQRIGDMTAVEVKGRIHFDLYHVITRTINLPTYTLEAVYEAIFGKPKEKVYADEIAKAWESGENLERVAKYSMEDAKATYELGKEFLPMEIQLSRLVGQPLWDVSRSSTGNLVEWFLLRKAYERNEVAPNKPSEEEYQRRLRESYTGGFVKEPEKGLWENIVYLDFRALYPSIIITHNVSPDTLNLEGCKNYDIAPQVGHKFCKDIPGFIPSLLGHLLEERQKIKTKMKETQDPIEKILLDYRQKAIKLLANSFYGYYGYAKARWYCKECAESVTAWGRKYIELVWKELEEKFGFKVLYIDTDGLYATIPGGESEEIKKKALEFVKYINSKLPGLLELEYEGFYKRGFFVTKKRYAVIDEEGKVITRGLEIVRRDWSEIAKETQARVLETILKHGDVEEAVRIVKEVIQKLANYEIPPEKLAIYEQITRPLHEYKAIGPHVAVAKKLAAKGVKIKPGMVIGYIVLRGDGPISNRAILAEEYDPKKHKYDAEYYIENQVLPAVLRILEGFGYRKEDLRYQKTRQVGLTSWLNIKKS
Description: A relatively small (0.9 kb) fragment of the human α1-antitrypsin gene was amplified in the absence or presence of dUTP. PCR reaction mixtures contained the following (in a 100 μl volume): 1× Cloned Pfu polymerase buffer; 200 μM each, dCTP, dGTP, dATP; 200 ng oligo F91-23 (100 ng/μl); 200 ng oligo R980-23 (100 ng/μl); 125 ng Human genomic DNA; 2.5 units Pfu DNA polymerase; 200 μM total of (dTTP and dUTP) or (dTTP+PEF generated dUMP).
PCR cycling was carried out as follows: 95° C. for 1 minute (1 cycle); 95° C. for 1 minute—58° C. for 1 minute—72° C. for 2 minutes (30 cycles).
Seven ng of PEF can reverse the inhibition caused by as much as 20 μM dUTP (data not shown). The preferred amount of PEF or P45 used in a particular reaction can be optimized according to the principles provided here or by methods for quantifying amplification reactions known in the art.

[2] = PCR cycling of dCTP alone, HPLC; format: physicochemical; conditions: 30 cycles
Description: FIG. 20. Reverse phase HPLC analysis of the products generated by PCR cycling dCTP. dCTP (10 mM in cloned Pfu DNA polymerase PCR buffer) was cycled alone (Panel A) or in the presence of 0.5 ng/μl PEF (Panel 8) or 1.25 U/μl Pfu DNA polymerase (Panel C). Cycling was carried out in a RoboCycler 40 using the following conditions: 95° C. 1 min./30 cycles of: 95° C. 1 min., 60° C. 1 min., 72° C. 10:24 min./72° C. 10 min. 10 μl of the reaction mixtures were chromatographed as described in the FIG. 18 legend. In panel D, the absorbance spectra of dCTP, dUTP, and the product generated from PCR cycling dCTP are compared. The absorbance spectra (200-300 nm) of the following were superimposed: (1) major peak at 8.3-8.8 min. from chromatogram of dCTP+Pfu unheated; (2) peak at 11.867 min. from chromatogram of dUTP in buffer unheated; (3) peak 12.150 from chromatogram C (FIG. 20) showing dCTP+Pfu cycled.
dUTP production was also measured during PCR cycling. A dCTP solution (10 mM dCTP in cloned Pfu DNA polymerase PCR buffer) was subject to PCR cycling in a RoboCycler 40 using the cycling conditions described for the 5.2 kb “on/off” system (example 1). Products generated during PCR were analyzed by HPLC as described above. After 30 cycles, the following products were evident: 79% dCTP, 19% dCDP, 1.8% dCMP, and 0.064% dUTP (FIG. 20, panel A). […] When dCTP was cycled in the presence of Pfu DNA polymerase (50×PCR conditions, 10 mM dCTP and 1.25 U Pfu/μl reaction mix) there was no difference in the amount of dCDP, dCMP, or dUTP produced (FIG. 20, panel C). However, when dCTP was cycled in the presence of PEF (50×PCR conditions, 10 mM dCTP and 0.5 ng PEF/μl reaction mix), the following products were produced: 73% dCTP, 19% dCDP, and 8% dCMP (FIG. 20, panel B).

[3] = Heat treatment of dCTP at 95° C., reverse phase HPLC; format: physicochemical
Description: FIG. 18. Reverse phase HPLC analysis of the products generated by heat-treatment of dCTP. dCTP (10 mM in cloned Pfu DNA polymerase PCR buffer) was heated at 95° C. in thin-walled tubes in a RoboCycler 40 temperature gradient block. Incubations were carried out for the following length of time: 0 (panel A), 1 hour (panel 6), or 4 hours (panel C). 10 μl of the reaction mixtures were loaded onto a Waters Delta-pak C18 column (300 angstrom/15 μm), equilibrated in 50 mM triethylammonium acetate, pH (7.0) (A). Products were eluted with acetonitrile (B) at 2 ml/min., using the following gradient: 0% B for 5 minutes, 0-10% B over 20 minutes. Absorbence of the eluate was monitored with a photodiode array detector, and peak areas were integrated at 260 nm. To the right of panels A and C are shown the same chromatograms re-integrated at a higher sensitivity. In panel D, 10 μl of 10 mM dUTP (in cloned Pfu DNA polymerase PCR buffer) was chromatographed.
dUTP, however, is not intentionally added to PCR reactions but may be generated by spontaneous deamination of dCTP during the high temperatures used in PCR cycling (Jens-Peter Horst and Hans-Joachim Fritz. (1996) The EMBO Journal 15; 5459-5469). To assess the extent of dCTP deamination to dUTP during PCR, we incubated dCTP (10 mM) at 95° C. (PCR denaturation temperature) in the presence of cloned Pfu DNA polymerase PCR buffer. The products of heat treatment were analyzed by reverse phase-HPLC (as described above) and peak assignments were made by comparing retention times to those of standards. […] A minor peak at 12.38 minutes was also produced (0.049%/1 hr.; 0.116%/4 hr.), which was identified as dUTP, based upon its retention time (dUTP standard=12.10 minutes; panel D) and absorbence maximum.

Pfu DNA polymerase [4] = target: T1, Pfu DNA polymerase; assay: 0.9 kb α1-antitrypsin PCR with unrelated dU-containing or control oligonucleotide; format: biochemical; conditions: per 100 ul reaction
[5] = Reverse phase HPLC analysis of dCTP conversion; format: biochemical
Description: The similarity of P45 to dCTP deaminases prompted us to test whether dCTP or other nucleotide triphosphates were substrates of PEF/P45. PEF was incubated with dCTP or dUTP and the reaction products were separated by reverse phase HPLC. Reaction mixtures (50 μl) containing 1× cloned Pfu polymerase buffer, 10 mM dCTP or dUTP, and 700 ng PEF (or 5 μl of cloned p45 (˜100 ng) or nothing (neg. control)) were incubated at 72° C. for 1 hour. The samples were injected on a […] Waters Delta-pak C-18 column (300 angstrom/15 μm), equilibrated in 50 mM triethylammonium acetate, pH (7.0) (A). Products were eluted with acetonitrile (B) at 2 ml/min. using the following gradient: 0% B for 5 minutes, 0-10% B over 20 minutes. Absorbence of the eluate was monitored with a photodiode array detector, and peak areas were integrated at 260 nm.

## O=c1ccn([C@H]2C[C@H](O)[C@@H](COP(=O)(O)O)O2)c(=O)[nH]1 [dUMP]
Pfu DNA polymerase [1]; at concentrations of 20 μM
  inhibition of Pfu polymerase-based PCR: not inhibitory

## Nc1ccn([C@H]2C[C@H](O)[C@@H](COP(=O)(O)OP(=O)(O)OP(=O)(O)O)O2)c(=O)n1 [dCTP]
[2]
  dCDP after PCR cycling: 19%
  dCMP after PCR cycling: 1.8%
  dCTP after PCR cycling: 79%
  dUTP after PCR cycling: 0.064%
[3]; 1 hr
  dCMP formed from dCTP: 2.8%
  dUTP formed from dCTP (12.38 minute peak): 0.049%
[3]; 1 hr, 10 mM in cloned Pfu PCR buffer
  dCDP formed from dCTP: 22%
[3]; 4 hr
  dCDP formed from dCTP: 41%
  dCMP formed from dCTP: 25%
  dUTP formed from dCTP (12.38 minute peak): 0.116%

## O=c1ccn([C@H]2C[C@H](O)[C@@H](COP(=O)(O)OP(=O)(O)OP(=O)(O)O)O2)c(=O)[nH]1 [dUTP, deoxyuracil triphosphate]
Pfu DNA polymerase [1]; 0.1% of the dTTP+dUTP pool
  dUTP concentration partially inhibiting amplification of the 900 bp product: 0.2 µM
Pfu DNA polymerase [1]; as low as, 1% of the dTTP+dUTP pool
  dUTP concentration completely inhibiting amplification of the 900 bp product: 2 µM

## control oligonucleotide: control oligo with dT rather than dU (SEQ ID NO: 86) (GGTTTTCCCAGTCACGACGTTGTAAAACGACGGCCAGT; DNA, backbone not given here)
Pfu DNA polymerase [4]
  amount of oligo showing inhibition of the Pfu-based PCR: 16 pmol and 8 pmol

## dU oligo: unrelated primer complementary to M13 DNA containing 9 dUs instead of dTs (SEQ ID NO: 87) (GGUUUUCCCAGUCACGACGUUGUAAAACGACGGCCAGU; DNA, backbone, methylation of C and T or U not given here; further chemistry not fully specified)
Pfu DNA polymerase [4]
  amount of oligo showing inhibition of the Pfu-based PCR: 0.8 pmol

B1: P45: 45 kD component of the Pfu PEF complex, functions as a dUTPase (SEQ ID NO.: 71) (protein, listed as Pyrococcus furiosus)
chain: MLLPDWKIRKEILIEPFSEESLQPAGYDLRVGREAFVKGKLIDVEKEGKVVIPPREYALILTLERIKLPDDVMGDMKIRSSLAREGVIGSFAWVDPGWDGNLTLMLYNASNEPVELRYGERFVQIAFIRLEGPARNPYRGNYQGSTRLAFSKRKKL
[5]
  deamination of dCTP: No deamination
